Here are results for 24 compounds from patent US8399444B2, “Bicyclic imidazole as DP1 receptor antagonists” (GlaxoSmithKline Intellectual Property Development Ltd., priority 2008, dated 2013).

Values joined by “and” are separate entries in the source; they are usually repeats but may differ in a detail not shown here. Equal values may be shown once. Where a name gives a salt, the structure may show the parent alone. Bounds are passed on as bounds.

The target of the test is T1, Prostanoid DP1 receptor (Homo sapiens, UniProt Q13258).
T1 construct: expressed in transfected cells; host or cells: CHO K1
T1 sequence (Q13258 1-359): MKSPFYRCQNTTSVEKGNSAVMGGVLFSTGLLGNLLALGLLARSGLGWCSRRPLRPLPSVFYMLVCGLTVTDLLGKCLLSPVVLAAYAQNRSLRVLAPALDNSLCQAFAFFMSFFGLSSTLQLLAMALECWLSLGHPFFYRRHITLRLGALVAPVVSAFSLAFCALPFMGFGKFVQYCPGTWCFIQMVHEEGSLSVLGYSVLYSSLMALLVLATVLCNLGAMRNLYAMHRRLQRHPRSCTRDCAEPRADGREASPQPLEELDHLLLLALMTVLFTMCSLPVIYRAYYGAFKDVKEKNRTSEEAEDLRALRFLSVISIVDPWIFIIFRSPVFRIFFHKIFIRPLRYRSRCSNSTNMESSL
As to the kind of experiment: Measurement of cAMP using TR-FRET LANCE assay: Prostanoid DP1. It counts as cell-based. Particulars: CHO cells expressing DP1 receptor, antagonism of PGD2 (EC80) cAMP response; read-out: pKi value (converted). The method, then:
CHO K1 cells, stably expressing the Prostanoid DP1 receptor, were maintained in culture in DMEM/F12, supplemented with 5% FBS, 2 mM L-glutamine, 400 μg/mL hygromycin B in 95%: 5% air: CO2 at 37° C. Following harvest from culture, cells were centrifuged at 250 g at 4° C. for 10 minutes and re-suspended in ice cold dialysed FCS. Once the cells were in mono-suspension they were slowly mixed with an equal volume of ice cold 80% dialysed FCS: 20% DMSO (pre-mixed and chilled several hours earlier). The cells were then aliquoted into 1 mL tubes within a 96 well block (pre-cooled to 4° C.). Once sealed, the tubes were frozen in a controlled rate freezer. The frozen cells were then transferred to a −140° C. freezer for long term storage.
Measurement of cAMP Using TR-FRET LANCE™ Assays: Prostanoid DP1
The potency of the compounds were determined using a LANCE™ cAMP assay kit as per the kit instructions. Briefly, CHO cells expressing DP1 receptor were thawed at 37° C., diluted in PBS and centrifuged at 1000 RPM for 5 minutes. Cells were then re-suspended (2 million cells/mL) in stimulation buffer (HBSS containing 0.01% BSA, 500 μM FAC IBMX, 5 mmol/L HEPES adjusted to pH 7.4 with KOH.
Briefly, cells were added (10,000 cells/well at 5 μL addition) to low volume white Greiner polypropylene 384-well plate assay plates containing 0.1 μl test compound. Following a 15 minute incubation at room temperature, 5 μl of antibody solution (stimulation buffer containing Alexia fluor 647) containing PGD2 at twice the determined EC80 concentration was added. Plates were incubated for a further 30 minutes at room temperature then detection mixture was added (kit components; detection buffer, europiumW8044-labelled streptavidin and biotin cAMP at 10 μl/well). Plates were covered and incubated the room temperature for 1 hour before reading on a Viewlux Microplate Imager using TR-FRET label settings.
All compounds were dissolved in DMSO at a concentration of 10 mM and were prepared in 100% DMSO using a 1 in 4 dilution step to provide 11-point concentration—response curves. The dilutions were transferred to the assay plates ensuring that the DMSO concentration was constant across the plate at 1% for all assays.
All data were normalised to the mean of 16 high and 16 low control wells on each plate. A four parameter curve fit of the following form was then applied.
Where a is the minimum, b is the Hill slope, c is the XC50, and d is the maximum. Data are presented as the mean pXC50 (negative log 10 of the molar XC50) with the standard deviation (SD) of number of tests in the experiments.
On to `CC(C)c1nc2c(n1Cc1ccc(Cl)cc1)C(CC(=O)O)CCC2` (stereo not drawn) [Example 15, [1-[(4-chlorophenyl)methyl]-2-(1-methylethyl)-4,5,6,7-tetrahydro-1H-benzimidazol-7-yl]acetic acid], for which the Ki was at most 10 nM.
On to `CC(C)c1nc2c(n1Cc1ccc(Cl)c(Cl)c1)C(CC(=O)O)CC2` (single isomer, unassigned; isomer 1) [Example 10, (+)-[3-[(3,4-dichlorophenyl)methyl]-2-(1-methylethyl)-3,4,5,6-tetrahydrocyclopenta[d]imidazol-4-yl]acetic acid ammonia salt (Isomer 1)], for which the Ki is at most 10 nM.
With `CC(C)c1nc2c(n1Cc1ccc(Cl)c(Cl)c1)C(CC(=O)O)CCCC2` (single isomer, unassigned; isomer 1) [Example 4, (+)-[3-[(3,4-dichlorophenyl)methyl]-2-(1-methylethyl)-3,4,5,6,7,8-hexahydrocyclohepta[d]imidazol-4-yl]acetic acid (isomer 1)] the figure was at most 10 nM; with `O=C(O)CC1CCCc2nc(C3CCCC3)n(Cc3ccc(Cl)cc3)c21` (stereo not drawn) [Example 22, {1-[(4-chlorophenyl)methyl]-2-cyclopentyl-4,5,6,7-tetrahydro-1H-benzimidazol-7-yl}acetic acid ammonia salt], at most 100 nM; with `CC(C)c1nc2c(n1Cc1ccc(Cl)cc1)C(OCC(=O)O)CCC2` (stereo not drawn) [Example 24, {[1-[(4-chlorophenyl)methyl]-2-(1-methylethyl)-4,5,6,7-tetrahydro-1H-benzimidazol-7-yl]oxy}acetic acid, formic acid salt], at most 100 nM.
Take `CC(C)c1nc2c(n1Cc1ccc(Cl)c(Cl)c1)C(CC(=O)O)CCC2` (stereo not drawn) [Example 19, [1-[(3,4-dichlorophenyl)methyl]-2-(1-methylethyl)-4,5,6,7-tetrahydro-1H-benzimidazol-7-yl]acetic acid]: the Ki was at most 10 nM.
In the case of `CC(C)c1nc2c(n1Cc1ccc(Cl)cc1)C(CC(=O)O)CCCC2` (stereo not drawn) [Example 1, [3-[(4-chlorophenyl)methyl]-2-(1-methylethyl)-3,4,5,6,7,8-hexahydrocyclohepta[d]imidazol-4-yl]acetic acid], the Ki is at most 10 nM.
In the case of `CC(C)c1nc2c(n1Cc1ccc(Cl)cc1)C(OCC(=O)O)CCCC2` (stereo not drawn) [Example 2], the Ki was at most 100 nM.
For `CC(C)c1nc2c(n1Cc1ccc(Cl)c(Cl)c1)C(CC(=O)O)CC2` (single isomer, unassigned; isomer 2) [Example 11, [3-[(3,4-dichlorophenyl)methyl]-2-(1-methylethyl)-3,4,5,6-tetrahydrocyclopenta[d]imidazol-4-yl]acetic acid ammonia salt (Isomer 2)], the Ki was at most 100 nM.
Regarding `CC(C)c1nc2c(n1Cc1ccc(Cl)cc1)C(CC(=O)O)CC2` (stereo not drawn) [Example 7, [3-[(4-chlorophenyl)methyl]-2-(1-methylethyl)-3,4,5,6-tetrahydrocyclopenta[d]imidazol-4-yl]acetic acid ammonia salt], the Ki is at most 100 nM.
In the case of `CC(C)c1nc2c(n1Cc1ccc(Cl)c(Cl)c1)[C@@H](CC(=O)O)CCC2` [Example 40, [(7R)-1-[(3,4-dichlorophenyl)methyl]-2-(1-methylethyl)-4,5,6,7-tetrahydro-1H-benzimidazol-7-yl]acetic acid], the Ki is ≤ 100 nM and ≤ 10 nM and ~2.51 nM.
To `CC(C)c1nc2c(n1[C@H](C)c1ccccc1)C(CC(=O)O)CCC2` (stereo partly drawn) [Example 31, {2-(1-methylethyl)-1-[(1R)-1-phenylethyl]-4,5,6,7-tetrahydro-1H-benzimidazol-7-yl}acetic acid ammonia salt] belongs at most 100 nM.
With `CC(C)c1nc2c(n1Cc1ccc(Cl)c(Cl)c1)C(OCC(=O)O)CCCC2` (single isomer, unassigned; isomer 1) [Example 36, {[3-[(3,4-dichlorophenyl)methyl]-2-(1-methylethyl)-3,4,5,6,7,8-hexahydrocyclohepta[d]imidazol-4-yl]oxy}acetic acid ammonia salt (Isomer 1)], the Ki is at most 100 nM.
With `CC(C)c1nc2c(n1[C@H](C)c1ccc(Cl)cc1)C(CC(=O)O)CCC2` (stereo partly drawn) [Example 33, [1-[(1R)-1-(4-chlorophenyl)ethyl]-2-(1-methylethyl)-4,5,6,7-tetrahydro-1H-benzimidazol-7-yl]acetic acid ammonia salt] the figure was at most 100 nM.
Turning to `CC(C)(C)c1nc2c(n1Cc1ccc(Cl)cc1)C(CC(=O)O)CCCC2` (stereo not drawn) [Example 6, [3-[(4-chlorophenyl)methyl]-2-(1,1-dimethylethyl)-3,4,5,6,7,8-hexahydrocyclohepta[d]imidazol-4-yl]acetic acid], the Ki is at most 10 nM.
To `CC(C)c1nc2c(n1Cc1ccc(Cl)cc1)C(CC(=O)O)CCC2` (single isomer, unassigned; isomer 2) [Example 32, (−)-[1-[(4-chlorophenyl)methyl]-2-(1-methylethyl)-4,5,6,7-tetrahydro-1H-benzimidazol-7-yl]acetic acid (Isomer 2)] belongs at most 10 nM.
For the compound `CC(C)c1nc2c(n1Cc1ccc(Cl)cc1)C(OCC(=O)O)CCC2` (single isomer, unassigned; isomer 2) [Example 26, {[1-[(4-chlorophenyl)methyl]-2-(1-methylethyl)-4,5,6,7-tetrahydro-1H-benzimidazol-7-yl]oxy}acetic acid formic acid salt (isomer 2)], the Ki is at most 10 nM.
Consider `CC(C)(C)c1nc2c(n1Cc1ccc(Cl)cc1)C(CC(=O)O)CCC2` (stereo not drawn) [Example 23, [1-[(4-chlorophenyl)methyl]-2-(1,1-dimethylethyl)-4,5,6,7-tetrahydro-1H-benzimidazol-7-yl]acetic acid, formic acid salt], for which the Ki was at most 100 nM.
To `CC(C)c1nc2c(n1Cc1ccc(Cl)c(Cl)c1)C(OCC(=O)O)CCCC2` (single isomer, unassigned; isomer 2) [Example 37, {[3-[(3,4-dichlorophenyl)methyl]-2-(1-methylethyl)-3,4,5,6,7,8-hexahydrocyclohepta[d]imidazol-4-yl]oxy}acetic acid ammonia salt (Isomer 2)] belongs at most 10 nM; to `CC(C)c1nc2c(n1Cc1ccc(Cl)c(Cl)c1)C(CC(=O)O)CCC2` (single isomer, unassigned; isomer 2) [Example 20, (−)-[1-[3,4-dichlorophenyl)methyl]-2-(1-methylethyl)-4,5,6,7-tetrahydro-1H-benzimidazol-7-yl]acetic acid ammonia salt (Isomer 2)], ≤ 100 nM and ≤ 10 nM and ~2 nM; to `CC(C)c1nc2c(n1Cc1ccc(Cl)c(Cl)c1)C(OCC(=O)O)CCCC2` (stereo not drawn) [Example 35, {[3-[(3,4-dichlorophenyl)methyl]-2-(1-methylethyl)-3,4,5,6,7,8-hexahydrocyclohepta[d]imidazol-4-yl]oxy}acetic acid hydrochloride], at most 100 nM.
Regarding `CC(C)c1nc2c(n1Cc1ccc(Cl)cc1)C(CC(=O)O)CCC2` (single isomer, unassigned; isomer 2) [Example 17, (−)-[1-[(4-chlorophenyl)methyl]-2-(1-methylethyl)-4,5,6,7-tetrahydro-1H-benzimidazol-7-yl]acetic acid ammonia salt (Isomer 2)], the Ki was at most 10 nM.
As to `CC(C)c1nc2c(n1Cc1ccc(Cl)c(Cl)c1)C(OCC(=O)O)CCCC2` (stereo not drawn) [Example 34, {[3-[(3,4-dichlorophenyl)methyl]-2-(1-methylethyl)-3,4,5,6,7,8-hexahydrocyclohepta[d]imidazol-4-yl]oxy}acetic acid ammonia salt], the Ki is at most 10 nM.
On to `CC(C)c1nc2c(n1Cc1ccc(Cl)c(Cl)c1)C(CC(=O)O)CC2` (stereo not drawn) [Example 9, [3-[(3,4-dichlorophenyl)methyl]-2-(1-methylethyl)-3,4,5,6-tetrahydrocyclopenta[d]imidazol-4-yl]acetic acid ammonia salt], for which the Ki is at most 10 nM.
